Legend:
IRAK4 = target: T1, IRAK4 (Homo sapiens, UniProt Q9NWZ3); experiment: IRAK4 Inhibition Assay (kinase reaction, Caliper capillary electrophoresis); format: biochemical; conditions: 500 μM ATP, 11 concentrations
T1 construct: 1 nM IRAK4 (160-460); purchased SignalChem M24016
T1 sequence (Q9NWZ3 160-460): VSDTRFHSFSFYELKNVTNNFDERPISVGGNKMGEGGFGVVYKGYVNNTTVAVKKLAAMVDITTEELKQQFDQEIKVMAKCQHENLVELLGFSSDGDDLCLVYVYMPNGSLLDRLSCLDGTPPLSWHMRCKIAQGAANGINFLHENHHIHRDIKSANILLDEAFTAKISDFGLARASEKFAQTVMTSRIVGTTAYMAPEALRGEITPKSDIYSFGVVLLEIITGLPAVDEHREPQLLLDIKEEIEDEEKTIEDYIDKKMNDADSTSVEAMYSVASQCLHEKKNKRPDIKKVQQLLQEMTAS
Procedure: (§1) The reactions were incubated out for three hours and quenched with 1 mM EDTA solution. The reaction incubation time and enzyme concentration were optimized to obtain a maximum peptide substrate conversion of 20-30%. The reaction mixtures were analyzed by capillary electrophoresis on a Caliper LabChip EZ Reader to resolve phosphorylated and unphosphorylated peptide species and determine peptide substrate conversion. […] The compounds were dissolved in DMSO and evaluated at 11 concentrations to determine IC50 values.

HPK1 = target: T2, HPK1 (Homo sapiens, UniProt Q92918); experiment: HPK1 Inhibition Assay (kinase reaction, Caliper capillary electrophoresis); format: biochemical; conditions: for IC50: 0.625 nM HPK1, 22 μM ATP, 11 concentrations, read-out: HPK1 IC50; for IRAK4/HPK1 Ratio: ratio of the IRAK4 IC50 value to the HPK1 IC50 value
T2 construct: purchased SignalChem M23-11G
T2 sequence (Q92918 1-346 limits assumed): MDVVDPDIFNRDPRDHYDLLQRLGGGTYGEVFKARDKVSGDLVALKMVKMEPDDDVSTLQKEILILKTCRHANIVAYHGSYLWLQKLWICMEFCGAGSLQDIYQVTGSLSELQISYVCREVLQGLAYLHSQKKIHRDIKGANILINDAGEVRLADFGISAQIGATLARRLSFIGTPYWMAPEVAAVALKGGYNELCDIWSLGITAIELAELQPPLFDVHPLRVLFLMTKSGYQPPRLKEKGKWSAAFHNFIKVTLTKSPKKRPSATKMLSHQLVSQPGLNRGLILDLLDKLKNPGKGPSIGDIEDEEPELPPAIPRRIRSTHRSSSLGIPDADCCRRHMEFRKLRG
Procedure: as §1, with “to determine the IC50 values.” for “to determine IC50 values.”

SMILES | IC50 (IRAK4) [nM] | IC50 (HPK1) [nM] | IRAK4/HPK1 Ratio (HPK1)
COC(=O)NC12CC(c3noc(-c4cnc(Nc5ccc6c(c5)C(C)(C)OC6=O)nc4N[C@H](CO)c4ccccc4)n3)(C1)C2 [Example 50, Methyl N-[3-(5-{2-[(3,3-dimethyl-1-oxo-1,3-dihydro-2-benzofuran-5-yl)amino]-4-{[(1S)-2-hydroxy-1-phenylethyl]amino}pyrimidin-5-yl}-1,2,4-oxadiazol-3-yl)bicyclo[1.1.1]pentan-1-yl]carbamate] | 250 to 1000 | < 50 | C (C=>50)
CC1(C)OC(=O)c2ccc(Nc3ncc(C(=O)NN)c(N[C@H](CO)c4ccccc4)n3)cc21 [Example 51, 2-[(3,3-dimethyl-1-oxo-1,3-dihydro-2-benzofuran-5-yl)amino]-4-{[(1S)-2-hydroxy-1-phenylethyl]amino}pyrimidine-5-carbohydrazide] | 250 to 1000 | < 50 | C (C=>50)
CC1(C)OC(=O)c2ccc(Nc3ncc(-c4n[nH]c(=O)o4)c(N[C@H](CO)c4ccccc4)n3)cc21 [Example 52, 5-{2-[(3,3-dimethyl-1-oxo-1,3-dihydro-2-benzofuran-5-yl)amino]-4-{[(1S)-2-hydroxy-1-phenylethyl]amino}pyrimidin-5-yl}-2,3-dihydro-1,3,4-oxadiazol-2-one] | 250 to 1000 | < 50 | C (C=>50)
CCn1nc(-c2cnc(Nc3ccc4c(c3)C(C)(C)OC4=O)nc2N[C@H](CO)c2ccccc2)oc1=O [Example 53, 5-{2-[(3,3-dimethyl-1-oxo-1,3-dihydro-2-benzofuran-5-yl)amino]-4-{[(1S)-2-hydroxy-1-phenylethyl]amino}pyrimidin-5-yl}-3-ethyl-2,3-dihydro-1,3,4-oxadiazol-2-one] | 250 to 1000 | < 50 | C (C=>50)
CC1(C)OC(=O)c2ccc(Nc3ncc(C(=O)NNC(=O)c4cccnc4)c(N[C@H](CO)c4ccccc4)n3)cc21 [Example 56, N′-{2-[(3,3-dimethyl-1-oxo-1,3-dihydro-2-benzofuran-5-yl)amino]-4-{[(1S)-2-hydroxy-1-phenylethyl]amino}pyrimidine-5-carbonyl}pyridine-3-carbohydrazide] | 250 to 1000 | < 50 | B (B=10 to 50)
CC1(C)OC(=O)c2ccc(Nc3ncc(-c4nnc(-c5cccnc5)o4)c(N[C@H](CO)c4ccccc4)n3)cc21 [Example 57, 5-[(4-{[(1S)-2-hydroxy-1-phenylethyl]amino}-5-[5-(pyridin-3-yl)-1,3,4-oxadiazol-2-yl]pyrimidin-2-yl)amino]-3,3-dimethyl-1,3-dihydro-2-benzofuran-1-one] | 250 to 1000 | < 50 | C (C=>50)
CC1(C)OC(=O)c2ccc(Nc3ncc(C(=O)NNC(=O)c4cnccn4)c(N[C@H](CO)c4ccccc4)n3)cc21 [Example 58, N′-{2-[(3,3-dimethyl-1-oxo-1,3-dihydro-2-benzofuran-5-yl)amino]-4-{[(1S)-2-hydroxy-1-phenylethyl]amino}pyrimidine-5-carbonyl} pyrazine-2-carbohydrazide] | 250 to 1000 | < 50 | B (B=10 to 50)
CC/N=C(\NCCCN(C)C)NNC(=O)c1cnc(Nc2ccc3c(c2)C(C)(C)OC3=O)nc1N[C@H](CO)c1ccccc1 [Example 59, 1-({2-[(3,3-dimethyl-1-oxo-1,3-dihydro-2-benzofuran-5-yl)amino]-4-{[(1S)-2-hydroxy-1-phenylethyl]amino}pyrimidin-5-yl}formohydrazido)-N-[3-(dimethylamino)propyl]-N′-ethylmethanimidamide] | 250 to 1000 | < 50 | B (B=10 to 50)
CC(C)(O)C(=O)NNC(=O)c1cnc(Nc2ccc3c(c2)C(C)(C)OC3=O)nc1N[C@H](CO)c1ccccc1 [Example 60, 2-[(3,3-dimethyl-1-oxo-1,3-dihydro-2-benzofuran-5-yl)amino]-4-{[(1S)-2-hydroxy-1-phenylethyl]amino}-N′-(2-hydroxy-2-methylpropanoyl)pyrimidine-5-carbohydrazide] | 250 to 1000 | 50 to 250 | B (B=10 to 50)
CC(C)(O)c1nnc(-c2cnc(Nc3ccc4c(c3)C(C)(C)OC4=O)nc2N[C@H](CO)c2ccccc2)o1 [Example 61, 5-[(4-{[(1S)-2-hydroxy-1-phenylethyl]amino}-5-[5-(2-hydroxypropan-2-yl)-1,3,4-oxadiazol-2-yl]pyrimidin-2-yl)amino]-3,3-dimethyl-1,3-dihydro-2-benzofuran-1-one] | 50 to 250 | < 50 | C (C=>50)
CC1(C)OC(=O)c2ccc(Nc3ncc(C(=O)NNC(=O)C4CC4)c(N[C@H](CO)c4ccccc4)n3)cc21 [Example 62, (S)—N′-(cyclopropanecarbonyl)-2-((3,3-dimethyl-1-oxo-1,3-dihydroisobenzofuran-5-yl)amino)-4-((2-hydroxy-1-phenylethyl)amino)pyrimidine-5-carbohydrazide] | 250 to 1000 | < 50 | C (C=>50)
CC1(C)OC(=O)c2ccc(Nc3ncc(C(=O)NNC(=O)C(C)(O)C(F)(F)F)c(N[C@H](CO)c4ccccc4)n3)cc21 (stereo partly drawn) [Example 64, 2-[(3,3-dimethyl-1-oxo-1,3-dihydro-2-benzofuran-5-yl)amino]-4-{[(1S)-2-hydroxy-1-phenylethyl]amino}-N′-(3,3,3-trifluoro-2-hydroxy-2-methylpropanoyl)pyrimidine-5-carbohydrazide] | 250 to 1000 | 50 to 250 | B (B=10 to 50)
CC1(C)OC(=O)c2ccc(Nc3ncc(-c4nnc(C(C)(O)C(F)(F)F)o4)c(N[C@H](CO)c4ccccc4)n3)cc21 (stereo partly drawn) [Example 65, 5-[(4-{[(1S)-2-hydroxy-1-phenylethyl]amino}-5-[5-(1,1,1-trifluoro-2-hydroxypropan-2-yl)-1,3,4-oxadiazol-2-yl]pyrimidin-2-yl)amino]-3,3-dimethyl-1,3-dihydro-2-benzofuran-1-one] | 250 to 1000 | < 50 | B (B=10 to 50)
CC1(C)OC(=O)c2ccc(Nc3ncc(-c4nnc(-c5ccccn5)o4)c(N[C@H](CO)c4ccccc4)n3)cc21 [Example 66, 5-[(4-{[(1S)-2-hydroxy-1-phenylethyl]amino}-5-[5-(pyridin-2-yl)-1,3,4-oxadiazol-2-yl]pyrimidin-2-yl)amino]-3,3-dimethyl-1,3-dihydro-2-benzofuran-1-one] | 250 to 1000 | 50 to 250 | B (B=10 to 50)
CC1(C)OC(=O)c2ccc(Nc3ncc(-c4nnc(-c5cccnn5)o4)c(N[C@H](CO)c4ccccc4)n3)cc21 [Example 67, 5-[(4-{[(1S)-2-hydroxy-1-phenylethyl]amino}-5-[5-(pyridazin-3-yl)-1,3,4-oxadiazol-2-yl]pyrimidin-2-yl)amino]-3,3-dimethyl-1,3-dihydro-2-benzofuran-1-one] | 50 to 250 | < 50 | B (B=10 to 50)
CC1(C)OC(=O)c2ccc(Nc3ncc(-c4nnc(C5(C(F)(F)F)CC5)o4)c(N[C@H](CO)c4ccccc4)n3)cc21 [Example 68, 5-[(4-{[(1S)-2-hydroxy-1-phenylethyl]amino}-5-{5-[1-(trifluoromethyl)cyclopropyl]-1,3,4-oxadiazol-2-yl}pyrimidin-2-yl)amino]-3,3-dimethyl-1,3-dihydro-2-benzofuran-1-one] | 250 to 1000 | < 50 | B (B=10 to 50)
CC1(C)OC(=O)c2ccc(Nc3ncc(-c4nnc(C5CCS(=O)(=O)CC5)o4)c(N[C@H](CO)c4ccccc4)n3)cc21 [Example 69, (S)-5-((5-(5-(1,1-dioxidotetrahydro-2H-thiopyran-4-yl)-1,3,4-oxadiazol-2-yl)-4-((2-hydroxy-1-phenylethyl)amino)pyrimidin-2-yl)amino)-3,3-dimethylisobenzofuran-1(3H)-one] | 50 to 250 | < 50 | B (B=10 to 50)
CC1(C)OC(=O)c2ccc(Nc3ncc(-c4nnc(C5(OC(=O)N6CC(F)(F)C6)CC5)o4)c(N[C@H](CO)c4ccccc4)n3)cc21 [Example 70, 1-(5-{2-[(3,3-dimethyl-1-oxo-1,3-dihydro-2-benzofuran-5-yl)amino]-4-{[(1S)-2-hydroxy-1-phenylethyl]amino}pyrimidin-5-yl}-1,3,4-oxadiazol-2-yl)cyclopropyl 3,3-difluoroazetidine-1-carboxylate] | 250 to 1000 | 50 to 250 | B (B=10 to 50)

From US11166959B2, “Isofuranone compounds useful as HPK1 inhibitors” (BRISTOL-MYERS SQUIBB COMPANY, priority 2017, dated 2021)
